Experimental findings from patent publication US20220048945A1, “PEPTIDE INHIBITING ACTIVITY OF ARYL HYDROCARBON RECEPTOR AND COSMETIC COMPOSITION USING SAME” (SUPADELIXIR INC., priority 2019, published 2022) are described below.

One experiment concerns IL-6. Description: ELISA, IL-6 production caused by fine dust. The experiment is classed as cell-based, human. Particulars: HaCaT cells, fine dust 10 ug/ml plus peptide 20 uM, 24 hours; fine dust only = 100, no treatment = 0. Here is the method:
(§1) 2. Specifically, the cultured HaCaT cells were treated with 10 ug/ml of fine dust and 20 uM of the peptide produced in Example 1 (AhR Pep1 to AhR Pep4) respectively, and incubated for 24 hours. Then, IL-6 and TNF-α contents were measured using a […] enzyme-linked immunosorbent assay (ELISA) kit (R&D Systems Inc, Minneapolis, Minn., USA).
In general terms: ELISA stands for enzyme-linked immunosorbent assay.

Another experiment concerns TNF-α. In words: ELISA, TNF-α production caused by fine dust. Particulars: HaCaT cells, fine dust 10 ug/ml plus peptide 20 uM, 24 hours; fine dust only = 100, no treatment = 0. The experiment is classed as cell-based, human. The procedure:
as §1

For the substance “Asp-Arg-Leu (DRL; Peptide 2) [AhR Pep 2]”, the “IL-6 production (%)” value in the experiment with IL-6 is listed as 87%. Also, the “TNF-α production (%)” value in the experiment with TNF-α is recorded as 93%.
On the same counts, the results for “Asp-Arg-Leu-Asn (DRLN; Peptide 1) [AhR Pep 1]” are 76% and 79%.
For “Asn-Thr-Glu (NTE; Peptide 4) [AhR Pep 4]” the same measures were 74% and 82%.
For “Asn-Thr-Glu-Leu (NTEL; Peptide 3) [AhR Pep 3]”, in the experiment with IL-6, the “IL-6 production (%)” value is 83%. Also, the “TNF-α production (%)” value in the experiment with TNF-α is 89%.
